{"source": "patent US20260374754A1", "about": "“N-((ISOQUINOLIN-6-YL)METHYL)-1H-PYRAZOLE-4-CARBOXAMIDE DERIVATIVES AS PLASMA KALLIKREIN INHIBITORS FOR THE TREATMENT OF HEREDITARY ANGIODEMA” (Takeda Pharmaceutical Company Limited, priority 2022, published 2026)", "target": "human activated kallikrein enzyme (Homo sapiens, UniProt P03952)", "sequence (P03952 391-638 limits assumed)": "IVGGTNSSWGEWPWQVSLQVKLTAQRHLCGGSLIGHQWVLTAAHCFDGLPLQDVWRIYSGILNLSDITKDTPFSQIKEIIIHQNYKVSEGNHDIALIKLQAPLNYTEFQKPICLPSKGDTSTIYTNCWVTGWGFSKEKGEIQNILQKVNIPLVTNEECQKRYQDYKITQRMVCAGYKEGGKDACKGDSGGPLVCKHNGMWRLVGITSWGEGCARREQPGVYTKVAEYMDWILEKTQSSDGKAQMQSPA", "sequence (P03952 20-390 partner limits assumed)": "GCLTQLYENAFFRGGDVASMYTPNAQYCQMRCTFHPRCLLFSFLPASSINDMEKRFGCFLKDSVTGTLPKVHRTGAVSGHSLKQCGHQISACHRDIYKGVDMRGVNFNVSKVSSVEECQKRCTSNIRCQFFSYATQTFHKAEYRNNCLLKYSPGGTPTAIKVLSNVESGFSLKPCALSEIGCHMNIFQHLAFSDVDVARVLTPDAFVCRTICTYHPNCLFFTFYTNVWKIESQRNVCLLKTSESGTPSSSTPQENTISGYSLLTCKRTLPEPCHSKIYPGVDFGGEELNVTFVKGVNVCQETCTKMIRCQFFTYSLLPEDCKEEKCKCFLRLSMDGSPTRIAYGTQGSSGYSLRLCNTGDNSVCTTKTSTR", "test": "Inhibition of human activated plasma kallikrein, fluorogenic PFR-AMC substrate, 500 pM enzyme format", "type": "biochemical", "details": "500 pM activated kallikrein; 300 μM PFR-AMC; 30 min preincubation; 10 min room temperature; pH 7.5; read-out: Primary Dose Response Assay: Average EC50", "method_in_brief": "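500 pM activated kallikrein preincubated 30 min at room temperature with inhibitors in pH 7.5 Tris/EDTA/NaCl buffer with PEG-400 and Triton X-100. Reaction started with 300 μM PFR-AMC, run 10 min at room temperature; AMC fluorescence read at ex 380/em 460 nm.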", "data": [{"smiles": "Cc1ccc2nc(Cn3cc(C(=O)NCc4c(C)cc5c(N)nccc5c4C)cn3)cn2c1", "note": "[Example 10, N-((1-amino-5,7-dimethylisoquinolin-6-yl)methyl)-1-((6-methylimidazo[1,2-a]pyridin-2-yl)methyl)-1H-pyrazole-4-carboxamide]", "values": [{"measurement": "EC50", "result": "< 0.001", "unit": "µM"}]}, {"smiles": "Cc1cnc2ccc(Cn3cc(C(=O)NCc4c(C)cc5c(N)nccc5c4C)cn3)cc2n1", "note": "[Example 24, N-((1-amino-5,7-dimethylisoquinolin-6-yl)methyl)-1-((3-methylquinoxalin-6-yl)methyl)-1H-pyrazole-4-carboxamide]", "values": [{"measurement": "EC50", "result": "< 0.001", "unit": "µM"}]}, {"smiles": "Cc1cc2c(N)nccc2c(C)c1CNc1cc(NCc2ccc(Cc3cscn3)cc2)ncn1", "note": "[Example 350, N^4-((1-amino-5,7-dimethylisoquinolin-6-yl)methyl)-N^6-(4-(thiazol-4-ylmethyl)benzyl)pyrimidine-4,6-diamine]", "values": [{"measurement": "EC50", "result": "< 0.001", "unit": "µM"}]}, {"smiles": "Cc1cc2c(N)nccc2c(C)c1CNC(=O)c1cnn(Cc2ccccc2)c1", "note": "[Example 160, N-((1-amino-5,7-dimethylisoquinolin-6-yl)methyl)-1-benzyl-1H-pyrazole-4-carboxamide]", "values": [{"measurement": "EC50", "result": "0.1 to 1", "unit": "µM"}]}, {"smiles": "Cc1ccc(Cn2cc(C(=O)NCc3c(C)cc4c(N)nccc4c3C)cn2)cc1Cl", "note": "[Example 96, N-((1-amino-5,7-dimethylisoquinolin-6-yl)methyl)-1-(3-chloro-4-methylbenzyl)-1H-pyrazole-4-carboxamide]", "values": [{"measurement": "EC50", "result": "0.001 to 0.01", "unit": "µM"}]}, {"smiles": "Cc1cc2c(N)nccc2c(C)c1CNc1cc(NCc2ccc(Cc3ccc(Cl)cn3)cc2)ncn1", "note": "[Example 369, N^4-((1-amino-5,7-dimethylisoquinolin-6-yl)methyl)-N^6(4-((5-chloropyridin-2-yl)methyl)benzyl)pyrimidine-4,6-diamine]", "values": [{"measurement": "EC50", "result": "0.001 to 0.01", "unit": "µM"}]}, {"smiles": "Cc1cc2c(N)nccc2c(C)c1CNc1ccc2nnc(Cc3ccc4ncc(Cl)cc4c3)n2c1", "note": "[Example 519, 6-(((3-((3-chloroquinolin-6-yl)methyl)-[1,2,4]triazolo[4,3-a]pyridin-6-yl)amino)methyl)-5,7-dimethylisoquinolin-1-amine]", "values": [{"measurement": "EC50", "result": "0.1 to 1", "unit": "µM"}]}, {"smiles": "C/C=C(/c1ccc(CNc2cc(NCc3c(C)cc4c(N)nccc4c3C)ncn2)cc1)n1cccn1", "note": "[Example I-483, (Z)—N^4-(4-(1-(1H-pyrazol-1-yl)prop-1-en-1-yl)benzyl)-N^6-((1-amino-5,7-dimethylisoquinolin-6-yl)methyl)pyrimidine-4,6-diamine]", "values": [{"measurement": "EC50", "result": "< 0.001", "unit": "µM"}]}, {"smiles": "Cc1cc2c(N)nccc2c(C)c1CNc1cc2c(ccn2Cc2ccc3ncc(Cl)cc3c2)cn1", "note": "[Example 531, 6-(((1-((3-chloroquinolin-6-yl)methyl)-1H-pyrrolo[3,2-c]pyridin-6-yl)amino)methyl)-5,7-dimethylisoquinolin-1-amine]", "values": [{"measurement": "EC50", "result": "0.01 to 0.1", "unit": "µM"}]}, {"smiles": "Cc1cc2c(N)nccc2c(C)c1CNC(=O)c1cnn(Cc2cn3c(C4CC4)cccc3n2)c1", "note": "[Example 137, N-((1-amino-5,7-dimethylisoquinolin-6-yl)methyl)-1-((5-cyclopropylimidazo[1,2-a]pyridin-2-yl)methyl)-1H-pyrazole-4-carboxamide]", "values": [{"measurement": "EC50", "result": "0.001 to 0.01", "unit": "µM"}]}, {"smiles": "Cc1cc2c(N)nccc2c(C)c1CNC(=O)c1cnn(Cc2ccc(CC(=O)N3C[C@@H]4[C@H](CF)[C@@H]4C3)cc2)c1", "note": "[Example 206, N-((1-amino-5,7-dimethylisoquinolin-6-yl)methyl)-1-(4-(2-((1R,5S,6s)-6-(fluoromethyl)-3-azabicyclo[3.1.0]hexan-3-y1)-2-oxoethyl)benzyl)-1H-pyrazole-4-carboxamide]", "values": [{"measurement": "EC50", "result": "0.001 to 0.01", "unit": "µM"}]}, {"smiles": "Cc1cc(CNc2cc(NCc3c(C)cc4c(N)nccc4c3C)ncn2)cc(C)c1CC(=O)N(C)C", "note": "[Compound 360]", "values": [{"measurement": "EC50", "result": "< 0.001", "unit": "µM"}]}, {"smiles": "Cc1cc2c(N)nccc2c(C)c1CNC(=O)c1cnn(Cc2ccc(-n3ccccc3=O)nc2)c1", "note": "[Example 46, N-((1-amino-5,7-dimethylisoquinolin-6-yl)methyl)-1-((2-oxo-2H-[1,2'-bipyridin]-5'-yl)methyl)-1H-pyrazole-4-carboxamide]", "values": [{"measurement": "EC50", "result": "0.01 to 0.1", "unit": "µM"}]}, {"smiles": "Cc1cc2c(N)nccc2c(C)c1CNC(=O)c1cnn(Cc2cn3ccccc3n2)c1", "note": "[Example 53, N-((1-amino-5,7-dimethylisoquinolin-6-yl)methyl)-1-(imidazo[1,2-a]pyridin-2-ylmethyl)-1H-pyrazole-4-carboxamide]", "values": [{"measurement": "EC50", "result": "0.001 to 0.01", "unit": "µM"}]}, {"smiles": "Cc1ccc2cc(CNc3cc(NCc4c(C)cc5c(N)nccc5c4C)ncn3)ccc2n1", "note": "[Example 335, N^4-((1-amino-5,7-dimethylisoquinolin-6-yl)methyl)-N^6-((2-methylquinolin-6-yl)methyl)pyrimidine-4,6-diamine]", "values": [{"measurement": "EC50", "result": "< 0.001", "unit": "µM"}]}, {"smiles": "Cc1cc2c(N)nccc2c(C)c1CNC(=O)c1cnn(C(F)(F)c2ccccc2)c1", "note": "[Example I-472, N-((1-amino-5,7-dimethylisoquinolin-6-yl)methyl)-1-(difluoro(phenyl)methyl)-1H-pyrazole-4-carboxamide]", "values": [{"measurement": "EC50", "result": "0.1 to 1", "unit": "µM"}]}, {"smiles": "CC(=O)NC1(c2ccc(Cn3cc(C(=O)NCc4c(C)cc5c(N)nccc5c4C)cn3)cc2)CC1", "note": "[Example 19, 1-(4-(1-acetamidocyclopropyl)benzyl)-N-((1-amino-5,7-dimethylisoquinolin-6-yl)methyl)-1H-pyrazole-4-carboxamide]", "values": [{"measurement": "EC50", "result": "< 0.001", "unit": "µM"}]}, {"smiles": "Cc1cc2c(N)nccc2c(C)c1CNc1cc2c(ccn2Cc2ccc3ncc(Cl)cc3c2)cn1", "note": "[Example 518, 6-(((1-((3-chloroquinolin-6-yl)methyl)-1H-pyrrolo[3,2-c]pyridin-6-yl)amino)methyl)-5,7-dimethylisoquinolin-1-amine]", "values": [{"measurement": "EC50", "result": "> 1", "unit": "µM"}]}, {"smiles": "Cc1ccc2cc(COc3cnnc(NCc4c(C)cc5c(N)nccc5c4C)c3)ccc2n1", "note": "[Example 412, 5,7-dimethyl-6-(((5-((2-methylquinolin-6-yl)methoxy)pyridazin-3-yl)amino)methyl)isoquinolin-1-amine]", "values": [{"measurement": "EC50", "result": "< 0.001", "unit": "µM"}]}, {"smiles": "Cc1cc2c(N)nccc2c(C)c1CNc1cc(NCc2ccc(CO)cc2)ncn1", "note": "[Example I-461, (4-(((6-(((1-amino-5,7-dimethylisoquinolin-6-yl)methyl)amino)pyrimidin-4-yl)amino)methyl)phenyl)methanol]", "values": [{"measurement": "EC50", "result": "0.001 to 0.01", "unit": "µM"}]}, {"smiles": "Cc1ccc2nc(Cn3cc(C(=O)NCc4c(C)cc5c(N(C(=O)OCc6ccccc6)C(=O)OCc6ccccc6)nccc5c4C)cn3)cn2c1", "note": "[Example 4, benzyl ((benzyloxy)carbonyl)(5,7-dimethyl-6-((1-((6-methylimidazo[1,2-a]pyridin-2-yl)methyl)-1H-pyrazole-4-carboxamido)methyl)isoquinolin-1-yl)carbamate]", "values": [{"measurement": "EC50", "result": "> 1", "unit": "µM"}]}, {"smiles": "Cc1ccc(Cn2cc(C(=O)NCc3c(C)cc4c(N)nccc4c3C)cn2)cc1C(F)(F)F", "note": "[Example 36, N-((1-amino-5,7-dimethylisoquinolin-6-yl)methyl)-1-(4-methyl-3-(trifluoromethyl)benzyl)-1H-pyrazole-4-carboxamide]", "values": [{"measurement": "EC50", "result": "0.001 to 0.01", "unit": "µM"}]}, {"smiles": "Cc1cc2c(N)nccc2c(C)c1CNc1ncnc2oc(Cc3ccc4ncc(Cl)cc4c3)nc12", "note": "[Example 538, N-((1-amino-5,7-dimethylisoquinolin-6-yl)methyl)-2-((3-chloroquinolin-6-yl)methyl)oxazolo[5,4-d]pyrimidin-7-amine]", "values": [{"measurement": "EC50", "result": "0.01 to 0.1", "unit": "µM"}]}, {"smiles": "Cc1cc2c(N)nccc2c(C)c1CNC(=O)c1cnn(Cc2ccc3ccc(Cl)cc3n2)c1", "note": "[Example 107, N-((1-amino-5,7-dimethylisoquinolin-6-yl)methyl)-1-((7-chloroquinolin-2-yl)methyl)-1H-pyrazole-4-carboxamide]", "values": [{"measurement": "EC50", "result": "0.001 to 0.01", "unit": "µM"}]}, {"smiles": "Cc1cc2c(N)nccc2c(C)c1CNC(=O)c1cnn(Cc2ccncc2)c1", "note": "[Example 87, N-((1-amino-5,7-dimethylisoquinolin-6-yl)methyl)-1-(pyridin-4-ylmethyl)-1H-pyrazole-4-carboxamide]", "values": [{"measurement": "EC50", "result": "0.1 to 1", "unit": "µM"}]}, {"smiles": "Cc1cc2c(N)nccc2c(C)c1CNC(=O)c1cnn(Cc2cnc3cc(Cl)ccc3c2)c1", "note": "[Example 61, N-((1-amino-5,7-dimethylisoquinolin-6-yl)methyl)-1-((7-chloroquinolin-3-yl)methyl)-1H-pyrazole-4-carboxamide]", "values": [{"measurement": "EC50", "result": "< 0.001", "unit": "µM"}]}, {"smiles": "Cc1cc2c(N)nccc2c(C)c1CNc1cc(C(O)c2cn3cc(C4CC4)ccc3n2)ccn1", "note": "(centres unmarked) [Example 453, (2-(((1-amino-5,7-dimethylisoquinolin-6-yl)methyl)amino)pyridin-4-yl)(6-cyclopropylimidazo[1,2-a]pyridin-2-yl)methanol]", "values": [{"measurement": "EC50", "result": "< 0.001", "unit": "µM"}]}, {"smiles": "Cc1ccn2cc(CNc3cc(NCc4c(C)cc5c(N)nccc5c4C)ncn3)nc2c1", "note": "[Example 322, N^4-((1-amino-5,7-dimethylisoquinolin-6-yl)methyl)-N^6-((7-methylimidazo[1,2-a]pyridin-2-yl)methyl)pyrimidine-4,6-diamine]", "values": [{"measurement": "EC50", "result": "0.001 to 0.01", "unit": "µM"}]}, {"smiles": "Cc1cc2c(N)nccc2c(C)c1CNC(=O)c1cnn(Cc2ccc(C3CC3)cc2)c1", "note": "[Example 29, N-((1-amino-5,7-dimethylisoquinolin-6-yl)methyl)-1-(4-cyclopropylbenzyl)-1H-pyrazole-4-carboxamide]", "values": [{"measurement": "EC50", "result": "0.001 to 0.01", "unit": "µM"}]}, {"smiles": "Cc1cc2c(N)nccc2c(C)c1CNc1cc(NCc2ccc(CC(=O)N3CC4CC4C3)cc2)ncn1", "note": "(centres unmarked) [Example 378, 2-(4-(((6-(((1-amino-5,7-dimethylisoquinolin-6-yl)methyl)amino)pyrimidin-4-yl)amino)methyl)phenyl)-1-(3-azabicyclo[3.1.0]hexan-3-yl)ethan-1-one]", "values": [{"measurement": "EC50", "result": "< 0.001", "unit": "µM"}]}, {"smiles": "Cc1cc2c(N)nccc2c(C)c1CNc1cc(OCc2ccc(CC(=O)N(C)C)cc2)cnn1", "note": "[Example I-465, 2-(4-(((6-(((1-amino-5,7-dimethylisoquinolin-6-yl)methyl)amino)pyridazin-4-yl)oxy)methyl)phenyl)-N,N-dimethylacetamide]", "values": [{"measurement": "EC50", "result": "< 0.001", "unit": "µM"}]}, {"smiles": "Cc1cc2c(N)nccc2c(C)c1CNc1cc(NC(C)c2ccc3ncc(Cl)cc3c2)ncn1", "note": "(centres unmarked) [Example 310, N^4-((1-amino-5,7-dimethylisoquinolin-6-yl)methyl)-N^6-(1-(3-chloroquinolin-6-yl)ethyl)pyrimidine-4,6-diamine]", "values": [{"measurement": "EC50", "result": "< 0.001", "unit": "µM"}]}]}
